Measured values taken from ChEMBL document CHEMBL1201862, “PubChem BioAssay data set” (2004).
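Five compound concentrations were applied to cells in 96-well plates for 48 hours; endpoints were derived by simple linear interpolation of the resulting dose-response curve. At the GI50, growth is halved.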 Activity calls are given as the source filed them. Cut-off read from the data, not from the text of the source: active = GI50 up to about 1.1 µM and inactive = higher.

Experiments:
Experiment in all cases: NCI-60 cell line screen, 48 h
[1] = system: OVCAR-5
[2] = system: HOP-92
[3] = system: NCI-H460
[4] = system: IGROV-1
[5] = system: OVCAR-8
[6] = system: HCT-15
[7] = system: SK-MEL-2
[8] = system: M14
[9] = system: COLO 205
[10] = system: KM12
[11] = system: U-251
[12] = system: CAKI-1
[13] = system: MDA-MB-435
[14] = system: SK-MEL-28
[15] = system: NCI-H226
[16] = system: TK-10
[17] = system: SNB-75
[18] = system: SK-OV-3
[19] = system: Malme-3M
[20] = system: HL-60

| Compound | GI50 [1] | GI50 [2] | GI50 [3] | GI50 [4] | GI50 [5] | GI50 [6] [µM] | GI50 [7] | GI50 [8] | GI50 [9] | GI50 [10] | GI50 [11] | GI50 [12] | GI50 [13] | GI50 [14] | GI50 [15] | GI50 [16] | GI50 [17] | GI50 [18] | GI50 [19] | GI50 [20] |
| --- | --- | --- | --- | --- | --- | --- | --- | --- | --- | --- | --- | --- | --- | --- | --- | --- | --- | --- | --- | --- |
| CSCCC(NCc1c(O)ccc2ccc(=O)oc12)C(=O)O (stereo not given) | > 100 µM (inactive) | > 100 µM (inactive) | > 100 µM (inactive) | > 100 µM (inactive) | > 100 µM (inactive) | > 100 | > 100 µM (inactive) | > 100 µM (inactive) | > 100 µM (inactive) | > 100 µM (inactive) | > 100 µM (inactive) | > 100 µM (inactive) | 70.8 µM (inactive) | > 100 µM (inactive) | > 100 µM (inactive) | > 100 µM (inactive) | 16.9 µM (inactive) | > 100 µM (inactive) | > 100 µM (inactive) | > 100 µM (inactive) |
| CC[C@@H]1CC[C@@H]2[C@H](CC[C@]3(C)[C@@H](O)CC[C@@H]23)[C@H]1CO | > 100 µM (inactive) | > 100 µM (inactive) | > 100 µM (inactive) | > 100 µM (inactive) | > 100 µM (inactive) | > 100 | > 100 µM (inactive) | > 100 µM (inactive) | 79.8 µM (inactive) | > 100 µM (inactive) | > 100 µM (inactive) | > 100 µM (inactive) | 66.1 µM (inactive) | > 100 µM (inactive) | > 100 µM (inactive) | > 100 µM (inactive) | 75.9 µM (inactive) | > 100 µM (inactive) | > 100 µM (inactive) | 23.3 µM (inactive) |
| O=C(O)c1cc2c(s1)C(=O)c1sccc1C2=O | 9.91 µM (inactive) | 16.3 µM (inactive) | 17.3 µM (inactive) | 17.1 µM (inactive) | 4.09 µM (inactive) | 3.93 | 2.23 µM (inactive) | 1.43 µM (inactive) | 17.2 µM (inactive) | 8.07 µM (inactive) | 5.02 µM (inactive) | 12.4 µM (inactive) | 0.774 µM (active) | 1.9 µM (inactive) | 19.6 µM (inactive) | 20.1 µM (inactive) | 1.82 µM (inactive) | 20.6 µM (inactive) | 0.659 µM (active) | 4.18 µM (inactive) |
| O=P1(Cc2ccccc2)c2ccccc2-c2ccccc21 | 12.1 µM (inactive) | 0.376 µM (active) | 4.04 µM (inactive) | 2.33 µM (inactive) | 4.4 µM (inactive) | 37.2 | 2.18 µM (inactive) | 3.67 µM (inactive) | 2.63 µM (inactive) | 1.08 µM (active) | 3.88 µM (inactive) | 21.7 µM (inactive) | 0.764 µM (active) | 4.13 µM (inactive) | 5.77 µM (inactive) | 5 µM (inactive) | 4.75 µM (inactive) | 15.7 µM (inactive) | 2.15 µM (inactive) | 1.04 µM (active) |
| Cc1cc2c(cc1C)NC1=C(O)C(c3c[nH]c4ccc(COc5ccccc5)cc34)OC1=N2 (stereo not given) | > 100 µM (inactive) | 33.3 µM (inactive) | > 100 µM (inactive) | 60.8 µM (inactive) | 43.9 µM (inactive) | > 100 | 58.2 µM (inactive) | > 100 µM (inactive) | > 100 µM (inactive) | > 100 µM (inactive) | 34.4 µM (inactive) | > 100 µM (inactive) | > 100 µM (inactive) | > 100 µM (inactive) | 58.7 µM (inactive) | 53.5 µM (inactive) | 14.9 µM (inactive) | 33.6 µM (inactive) | > 100 µM (inactive) | > 100 µM (inactive) |
| COc1cccc(-c2cc(O)c3cc(N4CCN(C)CC4)ccc3n2)c1 | 5.14 µM (inactive) | 1.06 µM (active) | 2.99 µM (inactive) | 3.2 µM (inactive) | 2.01 µM (inactive) | 1.75 | 1.19 µM (inactive) | 1.99 µM (inactive) | 1.67 µM (inactive) | 1.91 µM (inactive) | 0.785 µM (active) | 2.66 µM (inactive) | 0.225 µM (active) | 1.47 µM (inactive) | 1.71 µM (inactive) | 9.64 µM (inactive) | 5.3 µM (inactive) | 2.82 µM (inactive) | 0.641 µM (active) | 0.537 µM (active) |
| O=C(O)CCc1nc(-c2ccccc2)c(-c2ccccc2)o1 [OXAPROZIN] | > 100 µM (inactive) | > 100 µM (inactive) | > 100 µM (inactive) | > 100 µM (inactive) | > 100 µM (inactive) | > 100 | > 100 µM (inactive) | > 100 µM (inactive) | > 100 µM (inactive) | > 100 µM (inactive) | > 100 µM (inactive) | > 100 µM (inactive) | > 100 µM (inactive) | > 100 µM (inactive) | > 100 µM (inactive) | > 100 µM (inactive) | > 100 µM (inactive) | > 100 µM (inactive) | > 100 µM (inactive) | > 100 µM (inactive) |
